Measurements published in PubChem BioAssay (NCI).
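Interpolation was linear, between the two tested concentrations surrounding the appropriate level; five concentrations were tested over 48 hours in 96-well plates. Definition used: TGI = concentration required for complete inhibition of growth.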

Legend:
Assay in all cases: NCI-60 cell line screen, 48 h
A498 renal = system: A498 renal
ACHN renal = system: ACHN renal
DU-145 prostate = system: DU-145 prostate
EKVX NSCLC = system: EKVX NSCLC
MALME-3M melanoma = system: MALME-3M melanoma
MDA-MB-435 = system: MDA-MB-435
NCI-H23 lung = system: NCI-H23 lung
NCI/ADR-RES ovarian = system: NCI/ADR-RES ovarian
RPMI-8226 leukemia = system: RPMI-8226 leukemia
SK-MEL-2 melanoma = system: SK-MEL-2 melanoma
SK-MEL-5 melanoma = system: SK-MEL-5 melanoma
SN12C renal = system: SN12C renal
SNB-75 CNS = system: SNB-75 CNS
SW-620 colon = system: SW-620 colon
UACC-62 melanoma = system: UACC-62 melanoma

SMILES	TGI (A498 renal)	TGI (ACHN renal)	TGI (DU-145 prostate)	TGI (EKVX NSCLC)	TGI (MALME-3M melanoma)	TGI (MDA-MB-435)	TGI (NCI-H23 lung)	TGI (NCI/ADR-RES ovarian)	TGI (RPMI-8226 leukemia)	TGI (SK-MEL-2 melanoma)	TGI (SK-MEL-5 melanoma)	TGI (SN12C renal)	TGI (SNB-75 CNS)	TGI (SW-620 colon)	TGI (UACC-62 melanoma)
CN(C)P(=O)(Oc1ccc(CC(NC(=O)OCc2ccccc2)C(=O)OCc2ccccc2)cc1)N(C)C (stereo not given)	38.1 µM	33.9 µM	29.2 µM	32.2 µM	32.7 µM	25.7 µM	28.1 µM	36.2 µM	15.2 µM	31.5 µM	38.1 µM	31.8 µM	33.3 µM	45.8 µM	31.5 µM
CC(C)(C)Nc1noc(=O)n1C(C)(C)C	> 100 µM	> 100 µM	> 100 µM	> 100 µM	> 100 µM	> 100 µM	> 100 µM	> 100 µM	> 100 µM	> 100 µM	> 100 µM	> 100 µM	> 100 µM	> 100 µM	> 100 µM
Nc1ccn(C2CCC(CO)O2)c(=S)n1 (stereo not given)	> 100 µM	> 100 µM	> 100 µM	> 100 µM	> 100 µM	> 100 µM	> 100 µM	> 100 µM	> 100 µM	> 100 µM	> 100 µM	> 100 µM	> 100 µM	> 100 µM	> 100 µM
Cc1ccc(N=Nc2ccc(O)c(CN(C)C)c2)cc1	40.2 µM	41.8 µM	47.3 µM	51.9 µM	31.2 µM	32.3 µM	> 100 µM	53.7 µM	48 µM	37.7 µM	28 µM	> 100 µM	75.1 µM	70.1 µM	44.3 µM
CCC[C@H](NS(=O)c1ccc(C)cc1)C(C(=O)OCC)=C(c1ccccc1)c1ccccc1 (stereo not given in full)	46 µM	60.8 µM	36.7 µM	38.6 µM	36.1 µM	35 µM	96 µM	> 100 µM	55.8 µM	31.7 µM	44.4 µM	41.7 µM	54.2 µM	> 100 µM	31.5 µM
CCN(CC)CCNC(=O)c1cc2cc(NC(=O)c3cc4cc(NC(=O)c5cc6cc(N)ccc6[nH]5)ccc4[nH]3)ccc2[nH]1	> 100 µM	> 100 µM	> 100 µM	> 100 µM	> 100 µM	> 100 µM	> 100 µM	> 100 µM	> 100 µM	> 100 µM	> 100 µM	> 100 µM	> 100 µM	> 100 µM	> 100 µM
CC(C)NC(=O)OCc1c(COC(=O)NC(C)C)c(-c2cc[n+](COC(=O)C(C)(C)C)cc2)n2c1CCC2	> 100 µM	> 100 µM	> 100 µM	> 100 µM	> 100 µM	> 100 µM	> 100 µM	> 100 µM	> 100 µM	> 100 µM	> 100 µM	> 100 µM	> 100 µM	> 100 µM	> 100 µM
Cc1nnc2sc(NN)nn12	> 100 µM	> 100 µM	> 100 µM	> 100 µM	> 100 µM	> 100 µM	> 100 µM	> 100 µM	> 100 µM	> 100 µM	> 100 µM	> 100 µM	> 100 µM	> 100 µM	> 100 µM
